In patent EP2380575B1, “Eslicarbazepine acetate and use” (Bial-Portela & CA, S.A., priority 2005, dated 2006):
Where two headings read alike, the source gives them in different places.

Tests used:
[1] = Study in epileptic patients: trough plasma concentrations of BIA 2-005; format: in vivo, humans
Source text: This clinical trial was a double-blind, randomized, placebo-controlled study performed by 20 centers in Croatia, Czech Republic, Germany, Lithuania and Poland. The stated objectives of the study were to assess the efficacy and safety of BIA 2-093 as adjunctive therapy in patients with refractory partial epilepsy. In total, 143 patients aged 18-65 years with at least 4 partial-onset seizures per month in spite of treatment with 1 or 2 antiepileptic drugs (AEDs) (e.g., phenytoin, valproate, primidone, phenobarbital, lamotrigine, gabapentin, topiramate or clonazepam) were randomly assigned to one of three groups: treatment with placebo (n=47), BIA 2-093 once-daily (n=50), or BIA 2-093 twice-daily (n=46), during 12 weeks (plus 1 week of tapering off). For the first 4 weeks, daily dose was 400 mg. Then, daily doses were increased to 800 mg (weeks 5-8), and finally to 1200 mg (weeks 9-12). […] See, e.g., Almeida I and Almeida II.
Plasma/serum samples for the "trough" (pre-dose) levels of BIA 2-005 and concomitant AEDs were collected at all visits but V5 (post-study visit). The objective was to characterize the influence of eslicarbazepine acetate on the pharmacokinetic behavior of the concomitant AEDs (e.g., phenytoin, valproate, primidone, phenobarbital, lamotrigine, gabapentin, topiramate, and clonazepam). […] Table 1: Trough plasma concentrations of BIA 2-005 following oral administration of eslicarbazepine acetate once-daily (o.d.) and twice-daily (b.i.d)

[2] = not given; remark: listed apart in the source
[3] = system: patients with refractory partial epilepsy; experiment: Study in epileptic patients: efficacy as adjunctive therapy; format: in vivo, humans; settings: for reduction in the number of seizures: versus baseline; for proportion of responders (50% or greater reduction in seizure frequency vs baseline): ITT
Protocol: The effects of eslicarbazepine acetate in humans was studied in at least the following clinical studies. In the first study, a placebo-controlled therapeutic exploratory study, once-daily and twice-daily dosing was compared in epileptic patients refractory to standard anti-epileptic drug therapy. In the second study, healthy subjects received either a once-daily (o.d.) oral dose of 900 mg of eslicarbazepine acetate or a twice-daily (b.i.d.) dose of 450 mg of eslicarbazepine acetate. In the third study, healthy subjects received single oral doses of eslicarbazepine acetate ranging from 20 mg to 2400 mg, and repeated once-daily (o.d.) oral doses ranging from 400 mg to 2400 mg of eslicarbazepine acetate. This clinical trial was a double-blind, randomized, placebo-controlled study performed by 20 centers in Croatia, Czech Republic, Germany, Lithuania and Poland. The stated objectives of the study were to assess the efficacy and safety of BIA 2-093 as adjunctive therapy in patients with refractory partial epilepsy. […] For the first 4 weeks, daily dose was 400 mg. Then, daily doses were increased to 800 mg (weeks 5-8), and finally to 1200 mg (weeks 9-12). […] See, […] and Almeida II. The proportion of patients with a 50% or greater reduction in seizure frequency in the treatment period compared to the baseline period in the intention-to-treat (ITT) population (n=143) was the primary efficacy endpoint. […] The proportion of responders in the once-daily group (54%) was also higher than in the twice-daily (41%) group. […] At this dose level, no significant difference was found between the twice-daily and the placebo groups. Secondary endpoints include the reduction in total seizure frequency, proportion of seizure-free patients, distribution of responders, comparison of once and twice daily regimens, and investigator's and patient's global evaluation.

[4] = Metabolic profile in liver microsomes, chiral analysis; format: in vitro ADME; settings: liver microsomes from rats, dogs, monkeys and humans, not the R(-) form
[5] = Trial B: pharmacokinetics following single and repeated doses in healthy young male subjects; format: in vivo, humans; settings: in a minor extent to R-licarbazepine
Protocol: The study integrated the results of three double-blind, randomized, placebo-controlled trials. To measure the pharmacokinetics of eslicarbazepine acetate following single doses, oral single doses of eslicarbazepine acetate ranging from 20 mg to 2400 mg were administered to healthy young male subjects (6 subjects per dose). The pharmacokinetics of eslicarbazepine acetate following repeated doses were measured by administering repeated oral doses ranging from 400 mg to 2400 mg of eslicarbazepine acetate to healthy young male subjects (6 subjects per dose) over a period of 8 days. Analytical test methods and experimental procedures were similar to those described for Trial A above.

[6] = system: voltage-gated sodium channel (VGSC); settings: compared with carbamazepine; cited from earlier work
[7] = after oral administration; below LOQ of the assay; cited from earlier work

NC(=O)N1c2ccccc2CC(O)c2ccccc21 (stereo not drawn) [BIA 2-005]
extent of systemic exposure versus dose (oral eslicarbazepine acetate, healthy subjects): approximately dose-proportional | total amount recovered in the urine (within 12 hours post-dose): about 20% | total amount recovered in the urine (within 24 hours post-dose): ~40% | Trough plasma concentration, Mean (sd) ([1]; 400 mg/day eslicarbazepine acetate, b.i.d. group): 4.9(2.3) µg/mL | Trough plasma concentration, Mean (sd) ([1]; 400 mg/day eslicarbazepine acetate, o.d. group): 4.0 (3.2) µg/mL | Trough plasma concentration, Mean (sd) ([1]; 800 mg/day eslicarbazepine acetate, b.i.d. group): 13.5 (9.6) µg/mL | Trough plasma concentration, Mean (sd) ([1]; 800 mg/day eslicarbazepine acetate, o.d. group): 10.7(7.0) µg/mL | Trough plasma concentration, Mean (sd) ([1]; 1200 mg/day eslicarbazepine acetate, b.i.d. group): 15.5 (8.8) µg/mL | Trough plasma concentration, Mean (sd) ([1]; 1200 mg/day eslicarbazepine acetate, o.d. group): 14.6 (8.8) µg/mL

CC(=O)O[C@H]1Cc2ccccc2N(C(N)=O)c2ccccc21 [eslicarbazepine acetate]
metabolism of eslicarbazepine acetate ([2]; in a minor extent to R-licarbazepine): extensively metabolized to eslicarbazepine | plasma concentrations of parent drug ([2]; limit of quantification 10 ng/mL): below the limit of quantification | reduction in the number of seizures ([3]; 400 mg once-daily): 38.9% | reduction in the number of seizures ([3]; 400 mg twice-daily): 20.2% | reduction in the number of seizures ([3]; 800 mg once-daily): 55.8% | reduction in the number of seizures ([3]; 800 mg twice-daily): 38.1% | proportion of responders (50% or greater reduction in seizure frequency vs baseline) ([3]; 800 mg/day (weeks 5-8), once-daily group): 58% | proportion of responders (50% or greater reduction in seizure frequency vs baseline) ([3]; 800 mg/day (weeks 5-8), twice-daily group): 33% | reduction in the number of seizures ([3]; 1200 mg once-daily): 59.5% | reduction in the number of seizures ([3]; 1200 mg twice-daily): 47.5% | proportion of responders (50% or greater reduction in seizure frequency vs baseline) ([3]; 1200 mg/day (weeks 9-12), once-daily group): 54% | proportion of responders (50% or greater reduction in seizure frequency vs baseline) ([3]; 1200 mg/day (weeks 9-12), twice-daily group): 41% | patients seizure-free ([3]; end of the 12-week treatment phase, once-daily group): 27.9% | assessment of efficacy by the investigator (CGI - Clinical Global Impression) and of acceptability by patient ([3]; once-daily group compared with the other groups): rated best | metabolite formed in liver microsomes [4]: S(+) enantiomer of licarbazepine | metabolism of eslicarbazepine acetate [5]: extensively metabolized to eslicarbazepine | affinity for the resting state of the channel, lower than that of carbamazepine [6]: about 3 fold | plasma concentrations of the parent drug [7]: < 10 ng/mL
